The inhibition is the share of the control response that was lost under treatment. The low end stands for little suppression, the high end for strong suppression.

Series [1] has as its target Focal adhesion kinase 1 (Homo sapiens) (UniProt Q05397). As to the kind of experiment: Inhibition of wild-type human partial length FAK (D402 to R696 residues) expressed in bacterial expression system at 1 uM by Kinomescan method relative to control.
Series [2] has as its target Tyrosine-protein kinase Blk (Homo sapiens) (UniProt P51451). As to the kind of experiment: Inhibition of wild-type human partial length BLK (G211 to L503 residues) expressed in bacterial expression system at 1 uM by Kinomescan method relative to control.
Series [3] concerns the target Serine/threonine-protein kinase STK11 (Homo sapiens) (UniProt Q15831). As to the kind of experiment: Inhibition of wild-type human full length LKB1 (M1 to Q433 residues) expressed in bacterial expression system at 1 uM by Kinomescan method relative to control.
The target of series [4] is Receptor-interacting serine/threonine-protein kinase 4 (Homo sapiens) (UniProt P57078). As to the kind of experiment: Inhibition of wild-type human partial length RIPK4 (M1 to V303 residues) expressed in mammalian expression system at 1 uM by Kinomescan method relative to control.
The target of series [5] is Cyclin-dependent kinase 16 (Homo sapiens) (UniProt Q00536). As to the kind of experiment: Inhibition of wild-type human partial length PCTK1 (G160 to A474 residues) expressed in mammalian expression system at 1 uM by Kinomescan method relative to control.
Series [6] addresses Tyrosine-protein kinase Tec (Homo sapiens) (UniProt P42680). As to the kind of experiment: Inhibition of wild-type human partial length TEC (L341 to D620 residues) expressed in bacterial expression system at 1 uM by Kinomescan method relative to control.
Series [7] concerns the target Dual specificity protein kinase CLK4 (Homo sapiens) (UniProt Q9HAZ1). As to the kind of experiment: Inhibition of wild-type human partial length CLK4 (R135 to K481 residues) expressed in bacterial expression system at 1 uM by Kinomescan method relative to control.
The test system of series [8] is Phosphatidylinositol 4,5-bisphosphate 3-kinase catalytic subunit alpha isoform (Homo sapiens), P42336 [E545K]. As to the kind of experiment: Inhibition of human partial length PIK3CA E545K mutant (R108 to N1068 residues) expressed in mammalian expression system at 1 uM by Kinomescan method relative to control.
For series [9], the target named is Mitogen-activated protein kinase kinase kinase 19 (Homo sapiens) (UniProt Q56UN5). As to the kind of experiment: Inhibition of wild-type human partial length YSK4 (T1019 to H1328 residues) expressed in mammalian expression system at 1 uM by Kinomescan method relative to control.
The target in series [10] is Dual specificity mitogen-activated protein kinase kinase 3 (Homo sapiens) (UniProt P46734). As to the kind of experiment: Inhibition of wild-type human full length MEK3 (M1 to S318 residues) expressed in mammalian expression system at 1 uM by Kinomescan method relative to control.
In series [11] the test system is Tyrosine-protein kinase ABL1 (Homo sapiens), P00519 [F317L]. As to the kind of experiment: Inhibition of human phosphorylated ABL1 F317L mutant (S229 to K512 residues) expressed in mammalian expression system at 1 uM by Kinomescan method relative to control.
The test system of series [12] is ALK tyrosine kinase receptor (Homo sapiens), Q9UM73 [C1156Y]. As to the kind of experiment: Inhibition of wild-type human partial length ALK C1156Y mutant (I1088 to E1409 residues) expressed in mammalian expression system at 1 uM by Kinomescan method relative to control.
Series [13] addresses Cyclin-dependent kinase 4/cyclin D1 (Homo sapiens) (UniProt P11802+P24385). As to the kind of experiment: Inhibition of wild-type human full length CDK4/cyclinD1 (M1 to E303 residues) expressed in mammalian expression system at 1 uM by Kinomescan method relative to control.
The nature of series [14]: Protein binding in rat plasma assessed as unbound fraction at 2 uM by rapid equilibrium dialysis method. Type of series: ADME, cell-free. Background: In equilibrium dialysis only unbound substance equilibrates across the membrane.
Series [15] has as its target Aurora kinase B (Homo sapiens) (UniProt Q96GD4). As to the kind of experiment: Inhibition of wild-type human partial length AURKB (D25 to A303 residues) expressed in mammalian expression system at 10 uM by Kinomescan method relative to control.
The target of series [16] is Cyclin-dependent kinase 17 (Homo sapiens) (UniProt Q00537). As to the kind of experiment: Inhibition of wild-type human full length PCTK2 (M1 to F523 residues) expressed in bacterial expression system at 10 uM by Kinomescan method relative to control.
Series [17] has as its target Eukaryotic translation initiation factor 2-alpha kinase 1 (Homo sapiens) (UniProt Q9BQI3). As to the kind of experiment: Inhibition of wild-type human partial length EIF2AK1 (Q147 to E603 residues) expressed in mammalian expression system at 10 uM by Kinomescan method relative to control.
The test system of series [18] is Receptor-type tyrosine-protein kinase FLT3 (Homo sapiens), P36888 [N841I]. As to the kind of experiment: Inhibition of human partial length FLT3 N841I mutant (V592 to Y969 residues) expressed in bacterial expression system at 10 uM by Kinomescan method relative to control.
Series [19] concerns Tyrosine-protein kinase ABL1 (Homo sapiens), P00519 [E255K]. As to the kind of experiment: Inhibition of human phosphorylated ABL1 E255K mutant (S229 to K512 residues) expressed in mammalian expression system at 10 uM by Kinomescan method relative to control.
The target of series [20] is Serine/threonine-protein kinase tousled-like 2 (Homo sapiens) (UniProt Q86UE8). As to the kind of experiment: Inhibition of wild-type human partial length TLK2 (E424 to N749 residues) expressed in bacterial expression system at 10 uM by Kinomescan method relative to control.
Series [21] relates to Tyrosine-protein kinase ABL1 (Homo sapiens), P00519 [F317I]. As to the kind of experiment: Inhibition of human non-phosphorylated ABL1 F317I mutant (S229 to K512 residues) expressed in mammalian expression system at 10 uM by Kinomescan method relative to control.
The target in series [22] is Serine/threonine-protein kinase TBK1 (Homo sapiens) (UniProt Q9UHD2). As to the kind of experiment: Inhibition of wild-type human full length TBK1 (M1 to L729 residues) expressed in mammalian expression system at 10 uM by Kinomescan method relative to control.
The target in series [23] is Dual specificity mitogen-activated protein kinase kinase 7 (Homo sapiens) (UniProt O14733). As to the kind of experiment: Inhibition of wild-type human full length MKK7 (M1 to R419 residues) expressed in mammalian expression system at 10 uM by Kinomescan method relative to control.
Series [24] has as its target Tyrosine-protein kinase Fer (Homo sapiens) (UniProt P16591). As to the kind of experiment: Inhibition of wild-type human partial length FER (S542 to T822 residues) expressed in bacterial expression system at 10 uM by Kinomescan method relative to control.
Series [25] has as its system Mast/stem cell growth factor receptor Kit (Homo sapiens), P10721 [D816H]. As to the kind of experiment: Inhibition of human partial length KIT D816H mutant (I571 to D952 residues) expressed in mammalian expression system at 10 uM by Kinomescan method relative to control.
Series [26] addresses Activin receptor type-2B (Homo sapiens) (UniProt Q13705). As to the kind of experiment: Inhibition of wild-type human ACVR2B (H169 to D504 residues) expressed in bacterial expression system at 10 uM by Kinomescan method relative to control.
Series [27] deals with Death-associated protein kinase 3 (Homo sapiens) (UniProt O43293). As to the kind of experiment: Inhibition of wild-type human partial length DAPK3 (M1 to A277 residues) expressed in bacterial expression system at 10 uM by Kinomescan method relative to control.

Serine/threonine-protein kinase tousled-like 2 (Homo sapiens), sequence (Q86UE8 whole entry, looked up, the tested form may be a part): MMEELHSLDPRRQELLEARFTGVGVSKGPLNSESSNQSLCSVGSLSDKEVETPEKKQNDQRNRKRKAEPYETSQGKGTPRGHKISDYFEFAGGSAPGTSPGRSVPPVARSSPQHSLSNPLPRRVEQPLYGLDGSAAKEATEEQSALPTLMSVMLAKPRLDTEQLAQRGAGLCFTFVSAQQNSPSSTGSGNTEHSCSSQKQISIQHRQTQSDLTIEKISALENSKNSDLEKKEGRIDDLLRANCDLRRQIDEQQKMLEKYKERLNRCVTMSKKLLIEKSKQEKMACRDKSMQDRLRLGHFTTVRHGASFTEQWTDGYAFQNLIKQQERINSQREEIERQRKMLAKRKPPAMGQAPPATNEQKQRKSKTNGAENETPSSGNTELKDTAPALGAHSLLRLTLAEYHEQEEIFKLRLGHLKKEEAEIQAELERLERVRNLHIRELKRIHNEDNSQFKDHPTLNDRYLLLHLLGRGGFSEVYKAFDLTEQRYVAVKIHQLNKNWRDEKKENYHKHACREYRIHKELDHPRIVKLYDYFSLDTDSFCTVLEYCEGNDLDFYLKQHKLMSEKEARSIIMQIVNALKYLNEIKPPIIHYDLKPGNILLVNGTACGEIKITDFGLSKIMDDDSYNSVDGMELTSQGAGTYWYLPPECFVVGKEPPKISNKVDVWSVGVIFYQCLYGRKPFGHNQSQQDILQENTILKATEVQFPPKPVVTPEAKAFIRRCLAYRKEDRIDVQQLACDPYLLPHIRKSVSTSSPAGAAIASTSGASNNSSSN
Eukaryotic translation initiation factor 2-alpha kinase 1 (Homo sapiens), sequence (Q9BQI3 whole entry, the tested form may be a part): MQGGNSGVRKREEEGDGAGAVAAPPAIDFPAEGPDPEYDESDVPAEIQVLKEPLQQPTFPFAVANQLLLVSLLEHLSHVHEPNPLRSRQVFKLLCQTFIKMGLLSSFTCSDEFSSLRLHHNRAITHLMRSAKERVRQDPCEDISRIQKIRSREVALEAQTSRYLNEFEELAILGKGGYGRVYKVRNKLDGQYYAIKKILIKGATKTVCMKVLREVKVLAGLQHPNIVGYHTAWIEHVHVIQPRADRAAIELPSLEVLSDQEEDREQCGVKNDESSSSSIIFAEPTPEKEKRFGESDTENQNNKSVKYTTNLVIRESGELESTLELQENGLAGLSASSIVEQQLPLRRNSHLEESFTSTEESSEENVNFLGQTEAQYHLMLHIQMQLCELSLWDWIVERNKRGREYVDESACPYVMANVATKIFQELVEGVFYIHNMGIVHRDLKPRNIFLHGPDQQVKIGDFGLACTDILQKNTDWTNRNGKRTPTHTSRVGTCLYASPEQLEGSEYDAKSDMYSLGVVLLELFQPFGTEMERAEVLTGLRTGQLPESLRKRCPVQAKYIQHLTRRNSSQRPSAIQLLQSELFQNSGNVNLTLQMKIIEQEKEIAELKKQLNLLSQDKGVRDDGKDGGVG
Mast/stem cell growth factor receptor Kit (Homo sapiens), P10721 [D816H], sequence (P10721 whole entry D816H, the tested form may be a part): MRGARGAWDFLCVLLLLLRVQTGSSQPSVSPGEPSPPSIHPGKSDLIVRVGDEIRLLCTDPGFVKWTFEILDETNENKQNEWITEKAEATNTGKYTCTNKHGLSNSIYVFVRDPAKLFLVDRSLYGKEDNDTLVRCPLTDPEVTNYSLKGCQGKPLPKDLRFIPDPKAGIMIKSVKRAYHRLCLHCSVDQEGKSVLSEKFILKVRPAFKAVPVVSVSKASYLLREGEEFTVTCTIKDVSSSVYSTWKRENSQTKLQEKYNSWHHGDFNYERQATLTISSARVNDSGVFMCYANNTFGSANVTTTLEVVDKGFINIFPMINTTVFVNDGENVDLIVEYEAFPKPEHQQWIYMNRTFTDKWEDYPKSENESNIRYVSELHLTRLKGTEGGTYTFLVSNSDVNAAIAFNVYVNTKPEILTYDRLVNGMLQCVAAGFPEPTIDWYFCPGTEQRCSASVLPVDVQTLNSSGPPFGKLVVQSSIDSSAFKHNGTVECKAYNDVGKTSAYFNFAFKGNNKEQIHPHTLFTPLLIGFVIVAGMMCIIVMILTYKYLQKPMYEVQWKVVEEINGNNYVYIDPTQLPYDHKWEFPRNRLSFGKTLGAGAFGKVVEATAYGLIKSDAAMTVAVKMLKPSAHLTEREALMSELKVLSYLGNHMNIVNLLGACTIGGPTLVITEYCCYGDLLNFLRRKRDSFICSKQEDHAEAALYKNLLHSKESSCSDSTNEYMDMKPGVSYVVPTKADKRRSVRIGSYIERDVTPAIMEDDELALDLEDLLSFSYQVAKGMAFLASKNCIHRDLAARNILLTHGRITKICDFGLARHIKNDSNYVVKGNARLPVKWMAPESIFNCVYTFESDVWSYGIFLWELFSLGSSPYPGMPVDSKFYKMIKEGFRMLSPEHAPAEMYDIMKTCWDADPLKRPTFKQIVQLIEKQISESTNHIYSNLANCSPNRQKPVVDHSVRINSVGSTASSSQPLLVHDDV
ALK tyrosine kinase receptor (Homo sapiens), Q9UM73 [C1156Y], sequence (Q9UM73 whole entry C1156Y, looked up, the tested form may be a part): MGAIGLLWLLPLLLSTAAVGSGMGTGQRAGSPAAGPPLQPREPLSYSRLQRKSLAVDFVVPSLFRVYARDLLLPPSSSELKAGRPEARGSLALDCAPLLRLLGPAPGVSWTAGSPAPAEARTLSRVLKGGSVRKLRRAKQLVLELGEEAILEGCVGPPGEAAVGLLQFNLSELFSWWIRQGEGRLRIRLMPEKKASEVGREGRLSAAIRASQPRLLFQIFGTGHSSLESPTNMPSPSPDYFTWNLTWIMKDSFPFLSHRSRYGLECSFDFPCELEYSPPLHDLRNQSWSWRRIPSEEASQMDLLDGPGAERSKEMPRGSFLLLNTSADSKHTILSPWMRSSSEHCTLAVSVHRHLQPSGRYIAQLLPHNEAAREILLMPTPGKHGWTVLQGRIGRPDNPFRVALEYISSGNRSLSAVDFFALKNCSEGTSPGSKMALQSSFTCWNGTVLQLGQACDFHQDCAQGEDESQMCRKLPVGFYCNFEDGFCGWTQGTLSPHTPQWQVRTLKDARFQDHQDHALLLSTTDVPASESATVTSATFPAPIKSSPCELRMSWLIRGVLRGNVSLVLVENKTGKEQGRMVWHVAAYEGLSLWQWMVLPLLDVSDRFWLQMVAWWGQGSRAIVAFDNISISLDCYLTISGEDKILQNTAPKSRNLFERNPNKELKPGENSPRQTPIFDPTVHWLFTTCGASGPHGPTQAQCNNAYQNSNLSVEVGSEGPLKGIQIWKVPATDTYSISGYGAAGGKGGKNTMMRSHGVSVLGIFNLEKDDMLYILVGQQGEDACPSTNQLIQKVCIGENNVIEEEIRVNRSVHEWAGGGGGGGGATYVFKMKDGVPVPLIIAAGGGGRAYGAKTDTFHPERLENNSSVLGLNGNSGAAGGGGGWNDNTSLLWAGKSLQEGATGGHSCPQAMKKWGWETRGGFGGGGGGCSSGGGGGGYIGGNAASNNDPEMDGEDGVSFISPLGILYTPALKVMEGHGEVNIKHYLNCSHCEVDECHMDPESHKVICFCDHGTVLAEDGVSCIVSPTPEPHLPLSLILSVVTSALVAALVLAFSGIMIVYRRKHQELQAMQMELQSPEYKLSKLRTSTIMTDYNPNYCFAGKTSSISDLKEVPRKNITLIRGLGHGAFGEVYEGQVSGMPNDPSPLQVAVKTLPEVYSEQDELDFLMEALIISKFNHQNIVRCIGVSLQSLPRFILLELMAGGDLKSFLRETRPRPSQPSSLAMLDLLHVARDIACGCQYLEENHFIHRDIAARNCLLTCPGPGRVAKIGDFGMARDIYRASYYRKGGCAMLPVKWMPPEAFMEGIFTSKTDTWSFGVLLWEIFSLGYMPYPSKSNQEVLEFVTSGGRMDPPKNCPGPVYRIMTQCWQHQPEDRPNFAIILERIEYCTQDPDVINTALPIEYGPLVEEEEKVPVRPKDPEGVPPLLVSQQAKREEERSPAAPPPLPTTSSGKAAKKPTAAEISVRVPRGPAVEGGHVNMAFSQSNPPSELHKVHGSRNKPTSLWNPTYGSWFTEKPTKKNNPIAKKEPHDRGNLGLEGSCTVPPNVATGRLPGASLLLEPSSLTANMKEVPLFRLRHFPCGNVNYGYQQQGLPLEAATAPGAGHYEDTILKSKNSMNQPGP
Tyrosine-protein kinase ABL1 (Homo sapiens), P00519 [F317I], sequence (P00519 whole entry F317I, the tested form may be a part): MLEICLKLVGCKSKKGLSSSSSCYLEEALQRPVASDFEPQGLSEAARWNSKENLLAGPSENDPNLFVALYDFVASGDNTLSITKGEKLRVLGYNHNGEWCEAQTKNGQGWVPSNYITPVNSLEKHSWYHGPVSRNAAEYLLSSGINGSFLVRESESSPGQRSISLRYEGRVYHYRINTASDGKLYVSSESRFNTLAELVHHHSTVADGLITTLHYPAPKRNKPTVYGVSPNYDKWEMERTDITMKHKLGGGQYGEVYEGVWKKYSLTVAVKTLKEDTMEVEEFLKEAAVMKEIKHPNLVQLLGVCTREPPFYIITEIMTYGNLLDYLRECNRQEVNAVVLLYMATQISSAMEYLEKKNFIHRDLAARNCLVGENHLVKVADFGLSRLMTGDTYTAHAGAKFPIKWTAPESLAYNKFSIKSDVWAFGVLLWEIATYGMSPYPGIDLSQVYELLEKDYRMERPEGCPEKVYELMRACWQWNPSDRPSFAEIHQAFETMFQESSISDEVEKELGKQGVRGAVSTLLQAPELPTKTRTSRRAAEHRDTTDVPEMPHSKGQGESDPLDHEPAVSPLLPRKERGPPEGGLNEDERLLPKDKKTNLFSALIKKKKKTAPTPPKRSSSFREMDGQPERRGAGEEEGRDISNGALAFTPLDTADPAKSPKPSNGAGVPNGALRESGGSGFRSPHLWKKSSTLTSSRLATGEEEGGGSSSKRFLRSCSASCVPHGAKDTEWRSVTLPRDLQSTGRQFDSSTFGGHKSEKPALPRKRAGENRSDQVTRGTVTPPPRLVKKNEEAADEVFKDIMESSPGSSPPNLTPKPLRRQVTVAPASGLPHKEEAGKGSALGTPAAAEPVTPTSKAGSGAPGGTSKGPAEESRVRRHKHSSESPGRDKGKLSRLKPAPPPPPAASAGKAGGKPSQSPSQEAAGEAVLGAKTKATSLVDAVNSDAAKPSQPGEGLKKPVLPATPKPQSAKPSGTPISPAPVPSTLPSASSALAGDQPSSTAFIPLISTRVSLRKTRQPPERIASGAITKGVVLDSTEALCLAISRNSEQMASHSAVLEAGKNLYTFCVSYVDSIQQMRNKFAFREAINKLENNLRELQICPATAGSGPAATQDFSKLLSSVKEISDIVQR

In the case of `O=C(Nc1cccc([C@@H]2CN(c3ncnc4[nH]ccc34)CCN2CCO)c1)Nc1c(F)cccc1N1CCCC1`, the inhibition in [1] was 90%; in series [2] it was 20%; in series [3], 87%; in [4] it was 80%; in series [5], 80%; in series [6], 45%. The inhibition is 100% in series [7]; 56% in series [8]; 40% in series [9]; 77% in [10]; 100% in series [11]; 70% in [12]. In [13], this compound came in with an inhibition of 100%. Moreover, the Fu in series [14] came out at 0.13%.

On to `O=C(Nc1cccc([C@H]2CCCN(c3ncnc4[nH]ccc34)C2)c1)Nc1ccccc1N1CCCC1`, for which the inhibition in [15] was 1.1%; in series [16] it was 97%; in series [17] it was 100%; in series [18] it was 12%; in [19], 35%; in series [20], 89%. Also, the inhibition in [21] was 100%; in [22], 57%; in [23] it was 68%; in series [24] it was 80%; in series [25], 4.2%; in [26] it was 100%. Moreover, the inhibition in [27] amounted to 4.1%.
